Reference: article PMC8867915, “Amyloid and Hydrogel Formation of a Peptide Sequence from a Coronavirus Spike Protein” (ACS Nano, 2022)

Columns and labels:
[1] = Hydrogel formation (tube inversion) as a function of pH; type: physicochemical; conditions: 1 wt % peptide in aqueous NaOH; cloudy gel, does not flow under tube inversion; liquid at the other pH values studied (pH 3-12)
From the text: Peptide […] is able to form a hydrogel under precisely defined conditions. […] The apple-green birefringence of the peptide gel stained with Congo red (Figure 6b) together with TEM images (Figure 6c) reveal that the hydrogel comprises a tight network of 20–50 nm wide peptide nanotapes. The viscoelastic response of the gel was studied by rheology. The linear regime was first identified by strain sweep experiments (Figure S5). The elastic modulus G′ > G′′ (the shear loss modulus) and G′ is weakly dependent on frequency and reaches a value >10^5 Pa at a high frequency (ω = 100 rad s^–1). These are all characteristic rheological signatures of gels, and the high frequency value of G′ is higher than that observed for many peptide hydrogels.[48] The FTIR spectrum shown in Figure 6e is very similar to that discussed for the solutions of 1 wt % […] at pH 4 and 5 and is consistent with a β-sheet secondary structure. The SAXS data was again fitted using a model form factor of Gaussian bilayers (Figure 6f). […]
Peptide […] was supplied by Peptide Synthetics (Peptide Protein Research Limited), Fareham, UK as a TFA salt. The molar mass by electrospray mass spectrometry is 1405.595 g mol^–1 and the purity is >95%, determined by high performance liquid chromatography (HPLC) in a gradient HPLC using an acetonitrile (0.1% TFA)/water (0.1% TFA) gradient with a Kinetex 2.6u XB-C18 100A column. […]

[2] = Rheology of peptide gel (frequency sweep of shear moduli); type: physicochemical; conditions: 1 wt % peptide gel at pH 4.4; cone and plate; constant stress 30 Pa; ω = 100 rad s^–1
From the text: Peptide […] is able to form a hydrogel under precisely defined conditions. […] The apple-green birefringence of the peptide gel stained with Congo red (Figure 6b) together with TEM images (Figure 6c) reveal that the hydrogel comprises a tight network of 20–50 nm wide peptide nanotapes. The viscoelastic response of the gel was studied by rheology. The linear regime was first identified by strain sweep experiments (Figure S5). The elastic modulus G′ > G′′ (the shear loss modulus) and G′ is weakly dependent on frequency and reaches a value >10^5 Pa at a high frequency (ω = 100 rad s^–1). These are all characteristic rheological signatures of gels, and the high frequency value of G′ is higher than that observed for many peptide hydrogels.[48] The FTIR spectrum shown in Figure 6e is very similar to that discussed for the solutions of 1 wt % […] at pH 4 and 5 and is consistent with a β-sheet secondary structure. The SAXS data was again fitted using a model form factor of Gaussian bilayers (Figure 6f). The XRD data is characterized by strong diffraction peaks at 10 and 4.7 Å, consistent with an amyloid cross-β diffraction pattern.[12],[49]−[51] The other weaker peaks can also be ascribed to β-sheet features.[49],[52]−[57]
Dynamic shear moduli were measured using a controlled stress AR-2000 rheometer from TA Instruments. […]

RSAIEDLLFDKV
pH at which hydrogel formation is observed [1]: 4.4 pH
shear elastic modulus G′ at high frequency [2]: > 10^5 Pa
